The source of these data is patent US20200138927A1, “NON-CROSS-LINKED […] […] […] FOR USE IN C[…]” (GlaxoSmithKline Biologicals SA, priority 2012, published 2020).

Converted amounts (≈) assume the structure as drawn.

A word on the solubility: it is the dissolved amount per volume that the medium holds. A lower solubility goes with a poorly soluble substance.

The nature of one data set: Solubility in water. The class given is physicochemical.
The nature of data set [1]: Adsorption to aluminium hydroxide. The class given is physicochemical.

In “Solubility in water”, `Cc1ccc2c(c1)nc(N)c1ncc(CCc3ccc(OCCOCCOCCC(F)(F)P(=O)(O)O)cc3C)cc12` [Compound K1] came in with a solubility of approximately 4000 µg/mL (≈ 6.78 mM). Moreover, the “adsorption to aluminium hydroxide” value in data set [1] is recorded as “adsorbs well”.
